Experimental data taken from patent publication US20190092720A1, “FUNCTIONALIZED BENZAMIDE DERIVATIVES AS ANTIVIRAL AGENTS AGAINST HBV INFECTION” (BARUCH S. BLUMBERG INSTITUTE, priority 2012, published 2019).
Like-named read-outs stand apart in the source and are kept apart here.

Experiments:
[1] = test system: capsid-associated HBV DNA; assay: Capsid-associated HBV DNA and DNA replication intermediates in AML12HBV10 cells; format: cell-based, Hepatitis B virus (HBV); details: 2 days, FIG. 1 panels D and E
Experimental: (§1) FIG. 1. Antiviral mechanism of the compounds of the present invention. AML12HBV10 cells were left untreated (NT) or treated with the indicated concentrations of the compounds of the disclosure Compound 6 and Compound 19, respectively, for 2 days. Bay-4109 (3 µM) or AT-61 (25 µM) served as positive controls. (A) Intracellular viral RNA was determined by Northern blot hybridization. Ribosomal RNA served as a loading control. (B) The total amounts of nucleocapsids were determined by a particle gel assay. (C) Encapsidated pgRNA were extracted and measured by Northern blot. (D) Nucleocapsid-associated HBV DNA was quantified by alkaline-treatment of nucleocapsids on the membrane following the particle gel assay and hybridized with a HBV-specific riboprobe. (E) HBV DNA replication intermediates were extracted and determined by Southern blot hybridizations.
(§2) Procedures of viral capsids and nucleocapsid-associated DNA analysis: AML12HB10 cells were lysed by addition of 300 μl buffer containing 10 mM Tris-HCl (pH7.6), 100 mM NaCl, 1 mM EDTA and 0.1% NP-40 to each well of 12-well plate. Cell debries were removed by centrifugation at 5000 g for 10 minutes. Ten microliters of the clarified cell lysates were fractionated by electrophoresis through nondenaturing 1% agarose gels and transferred to a nitrocellulose filter by blotting with TNE buffer (10 mM Tris-HCl, pH7.6; 150 mM NaCl and 1 mM EDTA). HBV capsids were detected by probing the membrane with an antibody against HBV core protein (DAKO). […] To detect capsid associated HBV DNA, the membrane were treated with buffer containing 0.5N NaOH and 1.5 M NaCl for 5 minutes and followed by neutralization with buffer containing 1 M TRIS-HCl and 1.5M NaCl for 5 minutes. The viral DNA was detected by hybridization with a α-^32P-UTP (800 Ci/mmol, Perkin Elmer) labeled minus strand specific full-length HBV riboprobe (Xu et al.).
To analyze the HBV DNA replication intermediates, cells were lysed by adding into each well of the 12-well plates 0.5 ml of lysis buffer containing 10 mM Tris-HCl (pH 8.0), 1 mM EDTA, 1% NP40 and 2% sucrose and incubating at 37° C. for 10 minutes. Cell debris and nuclei were removed by centrifugation and the supernatant was mixed with 130 μl of 35% polyethylene glycol (PEG) 8000 containing 1.5 M NaCl. After 1 hour incubation in ice, viral nucleocapsids were pelleted by centrifugation at 6,000×g for 5 minutes at 4° C., followed by 1 hour digestion at 37° C. in 400 μl of digestion buffer containing 0.5 mg/ml pronase (Calbiochem), 0.5% SDS, 150 mM NaCl, 25 mM Tris-HCl (pH 8.0) and 10 mM EDTA. The digestion mixture was extracted twice with phenol and DNA was precipitated with ethanol, dissolved in TE buffer (10 mM Tris-HCl, pH 8.0; 0.1 mM EDTA). […]

HBV capsids = assay: Particle gel assay of nucleocapsids in AML12HBV10 cells; format: cell-based, Hepatitis B virus (HBV); details: 2 days, FIG. 1 panel B
Experimental: as §1, §2

encapsidated pgRNA = assay: Encapsidated pgRNA by Northern blot in AML12HBV10 cells; format: cell-based, Hepatitis B virus (HBV); details: 2 days, FIG. 1 panel C
Experimental: as §1
Determination of encapsidated pgRNA: AML12HBV10 cells were lysed by addition of 600 μl of lysis buffer (50 mM Tris-HCl [pH 7.5], 1 mM EDTA, 150 mM NaCl, 1% NP-40) into each well of 12-well plates. The nuclei were removed by centrifugation at 5,000 g for 10 minutes. One-half of the sample was mixed with 6 U of micrococcal nuclease (Pharmacia) and 15 μl of 100 mM CaCl2 and incubated for 15 minutes at 37° C. to digest free nucleic acids. The reaction was stopped with 6 μl of 0.5 M EDTA, and capsids were precipitated by adding 125 μl of 35% polyethylene glycol 8000 in 1.75 M NaCl to the reaction and incubating in ice for 30 minutes, followed by centrifugation at 6,000 g for 10 minutes at 4° C. Pellets were re-suspended in 50 μl of TNE buffer (10 mM Tris-HCl [pH 8], 100 mM NaCl, 1 mM EDTA). pgRNA was extracted by the addition of 1 ml of Trizol reagent. The encapsidated pgRNA were electrophoresed through a 2.2 M formaldehyde-1% agarose gel, transferred to a nylon membrane, and immobilized by UV cross-linking (Stratagene). Hybridization was performed with an alpha-^32P-UTP labeled riboprobe specific for plus strand of HBV genome.

[2] = test system: HBV replication in HepDES19 cells; assay: Antiviral activity in HepDES19 cells (core-associated HBV DNA, Southern blot); format: cell-based, Hepatitis B virus (HBV); details: concentration that reduces core-associated HBV DNA by 50%; 6 days; serial dilution 10 μM to 0.018 μM
Excerpt: Determination of antiviral activity of compounds of the disclosure, as presented in Table 1, in human hepatoma-derived cell lines: To further confirm the antiviral activity of the compounds of the disclosure against HBV in human hepatocyte-derived cells, HepDES19 cells, a human hepatoma cell line supporting HBV replication in a tetracycline inducible manner (Guo et al., 2007), seeded into 12-well plates at a density of 5×10^5 cells per well and cultured in DMEM/F12 media with 10% fetal bovine serum and 1 μg/ml tetracycline. Two days after seeding, the cells were mock-treated or treated with a serial dilution of compounds of the disclosure, ranging from 10 μM to 0.018 μM, for 6 days in the absence of tetracycline. Upon the completion of treatment, cells were lysed by adding into each well of the 12-well plates 0.5 ml of lysis buffer containing 10 mM Tris-HCl (pH 8.0), 1 mM EDTA, 1% NP40 and 2% sucrose and incubating at 37° C. for 10 minutes. Cell debris and nuclei were removed by centrifugation and the supernatant was mixed with 130 μl of 35% polyethylene glycol (PEG) 8000 containing 1.5 M NaCl. After 1 hour incubation in ice, viral nucleocapsids were pelleted by centrifugation at 6,000×g for 5 min at 4° C., followed by 1 hour digestion at 37° C. in 400 μl of digestion buffer containing 0.5 mg/ml pronase (Calbiochem), 0.5% SDS, 150 mM NaCl, 25 mM Tris-HCl (pH 8.0) and 10 mM EDTA. The digestion mixture was extracted twice with phenol and DNA was precipitated with ethanol, dissolved in TE buffer (10 mM Tris-HCl, pH 8.0; 0.1 mM EDTA). One half of the DNA sample from each well was resolved by electrophoresis into a 1.5% agarose gel. The gel was then subjected to denaturation in a solution containing 0.5 M NaOH and 1.5 M NaCl, followed by neutralization in a buffer containing 1 M Tris-HCl (pH7.4) and 1.5 M NaCl. DNA was then blotted onto Hybond-XL membrane (GE Health care) in 20×SSC buffer. The amounts of cytoplasmic HBV core-associated HBV DNA were determined by Southern blot hybridization and the antiviral efficacy of a compound was expressed as its concentration that reduce the amount of HBV DNA by 50% (EC50) or 90% (EC90).

[3] = test system: HBV replication in AML12HBV10 cells; assay: Antiviral efficacy in AML12HBV10 cells (HBV DNA dot-blot hybridization); format: cell-based, Hepatitis B virus (HBV)
Experimental: The HBV replication inhibitors of the present invention are capable of treating and preventing diseases associated with HBV infection.
The antiviral efficacy of the compounds of the disclosure, as presented in Table 1, were determined in AML12HBV10 cells. AML12HBV10 is an immortalized murine hepatocyte (AML12)-derived stable cell line that supports robust HBV replication in a tetracycline inducible manner (Xu et al.). The cells were seeded into 96 well plates at a density of 2×10^4 cells per well and cultured in DMEM/F12 media with 10% fetal bovine serum in the absence of tetracycline to allow pgRNA transcription and HBV DNA replication. One day after seeding, cells were left untreated or treated with a serial dilution of testing compounds, ranging from 50 μM to 0.39 μM, for 48 hours. Cells were then lysed by adding into each well of 100 μl lysis buffer containing 10 mM Tris-HCl (pH 7.6), 1 mM EDTA, 100 mM NaCl and 1% NP-40 and incubated at 37° C. for 30 minutes. Half amount (50 μl) of cell lysate from each well was combined with equal volume of denaturing solution containing 0.5N NaOH and 1.5M NaCl. After 5 minute incubation, 100 µl of neutralization solution (1M Tris-HCl, pH 7.4, 1.5M NaCl) was added into each well. The denatured cell lysates (totally 200 μl) were applied onto Nylon membrane using 96-well dot-blot manifold (Biorad). HBV DNA in the cell lysates were determined by dot-blot hybridization with alpha-^32P-UTP-labelled riboprobe specific for HBV minus strand DNA. The antiviral efficacy of a compound of the disclosure was expressed as the concentration that reduces the amount of HBV DNA by 50% (EC50).

AML12HBV10 cells = assay: Cytotoxicity in AML12HBV10 cells (MTT assay); format: cell-based, murine; details: concentration that reduces viability by 50%, 48 hours, serial dilution 50 μM to 0.39 μM
Experimental: (§3) Determination of cytotoxicity of compounds of the disclosure in AML12HBV10 cells: To determine the cytotoxicity of the compounds, AML12HBV10 cells were seeded into 96-well plates at a density of 2×10^4 cells per well and cultured in DMEM/F12 media with 10% fetal bovine serum in the absence of tetracycline to allow pgRNA transcription and HBV DNA replication. One day after seeding, cells were left untreated or treated with a serial dilution of testing compounds, ranging from 50 μM to 0.39 μM, for 48 hours. The cell viability was measured by a MTT assay, following procedure provided by the manufacturer (Promega). The cytotoxicity of a compound was expressed as the concentration of compound that reduces the viability of the cells by 50% (CC50).

HBV mRNA = assay: Intracellular viral RNA by Northern blot in AML12HBV10 cells; format: cell-based, Hepatitis B virus (HBV); details: 2 days, FIG. 1 panel A
Experimental: as §1
Procedure for analysis of HBV mRNA: Upon the completion of treatment, total cellular RNA was extracted with TRIzol reagents (Invitrogen). Five micrograms of total RNA was resolved in 1.5% agarose gel containing 2.2 M formadelhyde and transferred onto Hybond-XL membrane in 20×SSC buffer. The amounts of HBV mRNA were determined by Northern blot hybridization with an alpha-^32P-UTP labeled riboprobe specific for plus strand of HBV genome.

[4] = Cytotoxicity in AML12HBV10 cells (MTT assay); format: cell-based, murine; details: mouse, concentration that reduces viability by 50%, serial dilution 50 μM to 0.39 μM
Experimental: as §3

SMILES	capsid-associated HBV DNA / DNA synthesis [1]	capsid formation (HBV capsids)	level of encapsidated pgRNA (encapsidated pgRNA)	EC50 [2]	EC50 ([3]; read-out: AML12HBV10 EC50, concentration that reduces the amount of HBV DNA by 50%, 48 hours, serial dilution 50 μM to 0.39 μM)	CC50 (AML12HBV10 cells)	amount of viral mRNA (HBV mRNA)	EC50 ([3]; Hepatitis B virus, AML12HBV10, 48 h, read-out: AML12HBV10 EC50, concentration that reduces the amount of HBV DNA by 50%, serial dilution 50 μM to 0.39 μM)	CC50 at 48 h [4]
O=C(N/C(C(=O)N1CCCCC1)=C(/Cl)c1ccccc1)c1ccccc1 [AT-61, reference compound]	dose-dependently reduced	did not affect	dose-dependently reduced	–	–	–	–	–	–
COC(=O)C1=C(C)NC(c2ncc(F)cc2F)=N[C@H]1c1ccc(F)cc1Cl [Bay41-4109, reference compound]	completely abolished	completely abolished	completely abolished	–	–	–	–	–	–
O=C(Nc1ccccc1)c1scc2c1OCCO2 [Entry 10]	–	–	–	8.45 µM	4.48 µM	> 50 µM	–	–	–
O=C(Nc1cccc(Cl)c1)c1cccc2c1OCCO2 [Entry 19]	reduced encapsidated pgRNA and capsid-associated HBV DNA in a dose-dependent manner	did not significantly affect	dose-dependently reduced	–	–	–	did not affect	< 0.4 µM	> 50 µM
